Measurements: US11926631B2, “Method of treating cancer using amanitin derivatives” (Heidelberg Pharma Research GmbH, priority 2017, dated 2024)
*1 amine or outer side, *2 acyl side, *3 side chain or, on linkers, in order; H or OH if unused. Where a SMILES comes first, the peptide text is derived from it. Bridges are numbered along the chain shown (N, C = ends). [ ]: non-standard residue; d: D form. ξ: configuration not given here. Ile(4R-OH,5-OH) = C[C@H]([C@H](N)C(=O)O)[C@@H](O)CO; X2 = Nc1ccc2c(CC(N[*:1])C(=O)[*:2])c([*:3])[nH]c2c1; X1 = O=C([C@@H]1CC(O)CN1[*:1])[*:2]; ξC = NC(CS)C(=O)O

Legend:
[1] = BrdU cell proliferation assay (cytotoxicity) on HEK293 cells; format: cell-based; conditions: human, 96 h incubation, BrdU assay (FIG. 4)
Protocol: (§1) BrdU Cell Proliferation Assay on HEK293 and HEK293 OATP1B3 cells
(§2) Black 96-well plates with clear bottom with 2.0×10^3 HEK293 and HEK293 OATP1B3 cells/well and 90 μl growth medium per well including 10% FCS and supplements were prepared. Controls: “Blank” was set up with 100 μl medium without cells, “Background” and “100%” were set up with cells in 100 μl medium.
(§3) Incubation for 24 h at 37° C. and 5% CO2.
(§4) Dilution Scheme of HDP 30.2528 and Alpha-Amanitin:
(§5) The stock solutions were diluted 1:1,000 (1:10 and 1:100 dilution) in medium: • 10 μl Amanitin derivative stock solution (1.0×10^−2 M)+90 μl PBS=100 μl 1.0×10^−3 M • 2 μl dilution+198 μl medium=200 μl 1×10^−5 M
Further Dilutions: • A: 200 μl 1.0×10^−5 M • B: 80 μl growth medium+20 μl solution A (1:5 dilution) • C: 80 μl growth medium+20 μl solution B (1:5 dilution) • D: 80 μl growth medium+20 μl solution C (1:5 dilution) • E: 80 μl growth medium+20 μl solution D (1:5 dilution) • F: 80 μl growth medium+20 μl solution E (1:5 dilution) • G: 80 μl growth medium+20 μl solution F (1:5 dilution) • H: 80 μl growth medium+20 μl solution G (1:5 dilution)
10 μl of each solution were added to well triplicates. […]

[2] = BrdU cell proliferation assay (cytotoxicity) on HEK293 OATP1B3 cells; format: cell-based; conditions: human, 96 h incubation, BrdU assay (FIG. 4)
Protocol: as §1
HEK293-OATP1B3 cell culture plates were coated with poly-D-lysine.
Coating with Poly-D-Lysine: • 5 mg poly D-lysine in 50 ml sterile water • 50 μl in each well of a 96 well plate • Incubation for 1 h at RT • Washing of wells twice with 200 μl sterile water • Drying for at least for 2 h (RT)
as §2, §3, §4, §5
Further Dilutions: • A: 200 μl 1.0×10^−5 M • B: 80 μl growth medium+20 μl solution A (1:5 dilution) • C: 80 μl growth medium+20 μl solution B (1:5 dilution) • D: 80 μl growth medium+20 μl solution C (1:5 dilution) • E: 80 μl growth medium+20 μl solution D (1:5 dilution) • F: 80 μl growth medium+20 μl solution E (1:5 dilution) • G: 80 μl growth medium+20 μl solution F (1:5 dilution) • H: 80 μl growth medium+20 μl solution G (1:5 dilution) […]

[3] = molecular target: DNA-dependent RNA polymerase II (Homo sapiens, UniProt P24928+P30876); conditions: background statement, no test in the patent; read-out: KD of the complex with RNA-polymerase II; cited from earlier work

In the case of CC[C@H](C)[C@@H]1NC(=O)CNC(=O)C2Cc3c([nH]c4cc(N)ccc34)SCC(NC(=O)CNC1=O)C(=O)N[C@@H](CC(N)=O)C(=O)N1CC(O)C[C@H]1C(=O)N[C@@H]([C@@H](C)[C@@H](O)CO)C(=O)N2 (stereo partly drawn) [HDP 30.2528, 6′-amino-amaninamide] (cyclo(GIG[ξC]N[X1][Ile(4R-OH,5-OH)][X2]); thioether 4-8), the EC50 at 96 h [1] is reported as 3000 nM and the EC50 at 96 h [2] is reported as 30 nM.

In the case of amanitin, the Kd [3] is listed as 3 nM.
